{
  "source": "patent US20210244686A1",
  "about": "“Novel Systems And Methods For The Therapeutic Use of Cannabinoids or Cannabinoid Analogs to Increase The Lipid Order of Cholesterol Containing Cell Membranes” (The Regents of the University of Colorado a body corporate, priority 2018, published 2021)",
  "assay_type_in_all_cases": "cell-based, human",
  "key": {"[1]": {"tested_on": "SK-N-BE(2) cells", "experiment": "Live cell confocal microscopy of lipid droplets (NBD-cholesterol, nile red)", "conditions": "CBD 20 μM, 24 hrs", "text": "(§1) Thus, the present inventors found multiple lines of evidence consistent with activation of cholesterol esterification in the CBD response. To further support the claim that CBD elicits cholesterol storage, the present inventors used live cell confocal microscopy of SK-N-BE(2) cells stained with both fluorescent cholesterol (22-NBD-Cholesterol) and the lipid droplet dye nile red (FIG. 4E) to quantify the number and size of lipid droplets. […] Altogether, these combined experiments highlight that the CBD response in cells includes activation of cholesterol esterification and storage.\nSK-N-BE(2) cells were seeded into fibronectin coated glass bottom 96 well plates (Matriplate) at a cell density of 40,000 cells/well using low background imaging media (FluoroBrite DMEM with all supplements described, above). At the time of seeding, nile red (ThermoFisher) was added at a final concentration of 100 ng/mL and NBD-cholesterol (ThermoFisher) was added at a final concentration of 10 μg/mL. […] Lipid droplets and their sizes were detected and quantified using the ImageJ Find Particles Function, and data was subsequently processed using Microsoft Excel. Error depicted represents the standard deviation calculated from three biological replicates. […]"}, "[2]": {"tested_on": "endoplasmic reticulum in SKNBE2 and HaCaT keratinocyte cells", "experiment": "Confocal microscopy of rhodamine-glibenclamide staining, ER structure", "description": "FIG. 16. Rhodamine-glibenclamide staining in live cells is visualized by confocal microscopy in live cells. ER structure is perturbed after 2 hours of exposure to CBD and o-1602, but not for o-1821 exposure."}, "[3]": {"tested_on": "SK-N-BE(2) cells", "experiment": "Lipidomics of total lipid abundance", "text": "To investigate the effect of CBD on cholesterol storage, the present inventors performed follow up experiments to determine the total cellular amounts of small molecule markers of cholesterol storage as a function of CBD exposure. The inventors detected accumulation of multiple species of cholesteryl esters with diverse chain length and degree of unsaturation in the acyl chain (FIG. 4A).\nSince this esterification requires acyl CoA reactants, the inventors surveyed our dataset for evidence of fatty acid utilization.\nas §1\nExtraction of cholesterol, precursors, free fatty acids, cholesteryl esters, and phospho lipids were performed in the following manner. SK-N-BE(2) cells in 10 cm dishes were washed with 10 mL PBS twice and then cells were scraped and pelleted at 400 rcf for 2 minutes. Cell pellets were resuspended in 100% methanol at 4° C. and sonicate at 70% power in 10 pulses, 5 seconds on/5 seconds off. The resulting lysate was rotated for 60 minutes at room temperature, followed by centrifugation for 20 min at 4° C. (16,100 rcf). Subcellular fractionation of organelles from intact SK-N-BE(2) cells was done in the following manner to assess subcellular CBD distribution. Cells in 10 cm culture dishes were harvest by washing twice with 10 mL PBS at room temperature, followed by trypsinization using a cell culture grade Trypsin/EDTA solution (ThermoFisher). Trypsinized cells were quenched by addition of 2 mL 10% FBS containing DMEM and cells were pelleted by centrifugation for 2 min at 4° C. (200 rcf). Cell pellets were wash one time with 10 mL PBS, and resuspended in 1 mL Tween20 Buffer (1×PBS, 0.05% Tween20, 5 mM EDTA). This lysate was subjected to mechanical disruption using a 1 mL glass Dounce homogenizer, 10 full passes at 4° C. Nuclei was pelleted from homogenate by centrifugation for 5 min at 4° C. (2,000 rcf). Supernatant was separated and insoluble ER membranes were pelleted by centrifugation for 10 min at 4° C. (4,000 rcf). Supernatant was separated and insoluble plasma membranes were pelleted by centrifugation for 10 min at 4° C. (16,000 rcf). […]"}, "[4]": {"tested_on": "SKNBE2 neuroblastoma cells", "experiment": "Flow cytometric analysis of rhodamine-glibenclamide staining in live cells"}},
  "data": [
    {"smiles": "C=C(C)[C@@H]1CCC(C)=C[C@H]1c1c(O)cc(CCCCC)cc1O", "note": "[CBD, cannabidiol]", "values": [
      {"measurement": "average abundance of lipid droplets", "setting": "[1]", "value": "increases"},
      {"measurement": "lipid droplet size", "setting": "[1]", "value": "does not affect"},
      {"measurement": "alteration of the structure of the endoplasmic reticulum", "setting": "[2]; SKNBE2 and HaCaT keratinocyte cells", "value": "dramatically alters the structure of the endoplasmic reticulum"},
      {"measurement": "ER structure", "setting": "[2]; after 2 hours of exposure, live cells", "value": "perturbed"},
      {"measurement": "cholesteryl esters", "setting": "[3]; CBD 20 μM vs vehicle", "value": "accumulation"},
      {"measurement": "free fatty acid levels", "setting": "[3]; CBD 20 μM vs vehicle", "value": "reduced"},
      {"measurement": "free phospholipid head-groups", "setting": "[3]; CBD 20 μM vs vehicle", "value": "accumulation"},
      {"measurement": "phosphatidylcholine and phosphatidylethanolamine species abundance", "setting": "[3]; CBD treated vs vehicle treated cells", "value": "reduced abundance"},
      {"measurement": "cellular response similar to cholesterol drugs Atorvastatin and Ezetimibe", "setting": "[4]; SKNBE2 neuroblastoma cells", "value": "low cholesterol response"},
      {"measurement": "rhodamine-glibenclamide fluorescence", "setting": "[4]; live cells, flow cytometry", "value": "Enhanced fluorescence"}
    ]}
  ]
}
